Measurements published in patent US20150080380A1, “Therapeutic Uses” (GLAXOSMITHKLINE INTELLECTUAL PROPERTY DEVELOPMENT LIMITED, priority 2012, published 2015).

Legend:
H3R = target: T1, H3R (Rattus norvegicus, UniProt Q9QYN8); assay: Histamine H3R functional inverse agonist assay with OPCs (cAMP assay); type: cell-based; settings: 30 nM to 3 µM compound, Forskolin 3 µM, absence of H3R agonist
T1 construct: endogenous in cells; host or cells: oligodendrocyte precursor cells (OPCs), untransfected
Description: Histamine receptor 3 (H3R), expressed on cell surface, is negatively coupled to adenylyl cyclase, which stimulates the formation of cyclic AMP (cAMP). In the absence of histamine, the constitutively active H3R would inhibit intracellular level of cAMP. Inverse agonists of H3R, which block constitutive activity of H3R, thus would raise the cAMP level. The ability of Example compound 2 to inhibit constitutive activity of H3R was determined in a cellular cAMP assay.
For each compound being assayed, OPCs were seeded in PO coated 96-well plate at a density of 20000 cells/well, and cultured in BDM with bFGF (10 ng/ml Petrotech) and PDGF (10 ng/ml Petrotech) for 24 hours. The cells were first treated with different concentration of example compound (30 nM to […]) for 30 minutes. Then the cells were stimulated with Forskolin ([…], Sigma) in the presence of the example compound for 15 minutes. The cAMP concentrations were measured by the cAMP Chemiluminescent Immunoassay Kit (Invitrogen, Cat. No. C10557). The cells were lysed with lysis buffer (60 μL, Invitrogen Kit reagent) at 37° C. for 30 minutes. […] Chemiluminescence signal was measured in a SpectraMax M5 Multi-Mode Microplate Readers (Molecular Devices) for 1 second per well.

[1] = target: T2, human recombinant H3 receptor (Homo sapiens, UniProt Q9Y5N1); assay: GTPγS binding assay (basal binding, HEK-293-GαO membranes); type: biochemical; settings: 100 nM-0.001 nM, absence of H3R agonist, 3 independent experiments; read-out: pEC50, inhibition of basal GTPγS binding (converted)
T2 construct: host or cells: HEK-293-GαO cells transduced with BacMam virus; membranes prepared
Description: The effect of Example compound 1 on basal GTPγS binding to the H3R receptor was determined in the GTPγS binding assay.
Human embryonic kidney 293 cells stably expressing G protein GαO (HEK-293-GO) were maintained in minimum essential medium (MEM) supplemented with Earle's salts, 2 mM L-glutamine, […] geneticin and 10% foetal bovine serum at 37-8° C., 5% CO2 in a humidified environment. Exponentially growing cells were infected with BacMam virus encoding the human recombinant H3 receptor (Biocat: Virus 96801) as follows. Cells were detached from flasks in PBS and collected by centrifugation at 200×g for 5 min at room temperature. […]
Cell membranes were diluted to ˜1 mg/ml in assay buffer (20 mM HEPES, 100 mM NaCl, 10 mM MgCl2, pH 7.4) and incubated with wheat germ agglutinin scintillation proximity assay (SPA) beads (Amersham Biosciences) for 45 min, after which GDP ([…]) was added. […] Non-specific binding was determined by the inclusion of 0.6 mM GTPγS. […] Filters were washed twice with 4 ml ice-cold water and bound […] on the filters was measured by scintillation counting on a Wallac 1450 Microbeta Trilux counter.
The data was analyzed and presented as fold change of the number of the vehicle control well (DMSO). […]

T2 sequence (Q9Y5N1 whole entry): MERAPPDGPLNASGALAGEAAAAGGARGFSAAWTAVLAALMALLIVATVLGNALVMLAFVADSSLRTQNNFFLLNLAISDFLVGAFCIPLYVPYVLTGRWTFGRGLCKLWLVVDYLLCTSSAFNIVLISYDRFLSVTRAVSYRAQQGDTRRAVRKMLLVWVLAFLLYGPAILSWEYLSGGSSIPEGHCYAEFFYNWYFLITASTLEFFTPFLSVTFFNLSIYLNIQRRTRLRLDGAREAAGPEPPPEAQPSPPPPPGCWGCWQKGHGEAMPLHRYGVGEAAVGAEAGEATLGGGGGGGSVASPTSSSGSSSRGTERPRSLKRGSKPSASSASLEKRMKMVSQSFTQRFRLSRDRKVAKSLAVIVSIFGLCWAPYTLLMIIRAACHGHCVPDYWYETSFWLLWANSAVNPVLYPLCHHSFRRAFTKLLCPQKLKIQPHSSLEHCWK
T1 sequence (Q9QYN8 whole entry): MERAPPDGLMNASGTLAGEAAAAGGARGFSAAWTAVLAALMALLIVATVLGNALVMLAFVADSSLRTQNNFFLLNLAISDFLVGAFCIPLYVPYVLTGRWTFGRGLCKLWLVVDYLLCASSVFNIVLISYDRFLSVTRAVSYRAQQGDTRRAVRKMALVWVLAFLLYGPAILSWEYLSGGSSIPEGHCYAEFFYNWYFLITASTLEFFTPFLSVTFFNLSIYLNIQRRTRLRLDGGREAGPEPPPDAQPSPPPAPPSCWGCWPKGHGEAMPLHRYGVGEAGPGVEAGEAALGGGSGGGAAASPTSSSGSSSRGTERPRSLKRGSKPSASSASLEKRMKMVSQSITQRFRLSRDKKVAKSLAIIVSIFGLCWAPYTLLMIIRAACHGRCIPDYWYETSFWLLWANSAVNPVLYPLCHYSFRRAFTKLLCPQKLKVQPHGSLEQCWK

In the case of `c1cc2c(cc1-c1noc(CC3CCN(C4CCC4)CC3)n1)OCO2` [Example compound 2, 3-(benzo[d][1,3]dioxol-5-yl)-5-((1-cyclobutylpiperidin-4-yl)methyl)-1,2,4-oxadiazole], the “Forskolin-stimulated cAMP level in primary OPCs” value (H3R) is reported as “increased”.
Work on `O=C1CCCN1c1ccc(Oc2ccc3c(c2)CCN(C2CCC2)CC3)nc1` [Example compound 1, 1-{6-[(3-cyclobutyl-2,3,4,5-tetrahydro-1H-3-benzazepin-7-yl)oxy]-3-pyridinyl}-2-pyrrolidinone] yielded an EC50 [1] of 0.112 nM.
